Results taken from patent publication US9629919B2, “Drug delivery of temozolomide for systemic based treatment of cancer” (CEDARS-SINAI MEDICAL CENTER, priority 2009, dated 2017).
“Also recorded” adds a separate entry of the source.

How the values were obtained:
physchem = assay type: physicochemical; settings: buffer, pH 7.4
Method: The conjugation reaction of PMLA with PEG, TMZH, LLL and LOEt was followed by thin layer chromatography (TLC) on precoated silica gel 60 F254 aluminum sheets (Merck, Darmstadt, Germany) and visualization of spots by UV light and/or by ninhydrin staining. The concentration of free or conjugated TMZH was monitored by reading A328 and using known amounts of TMZ or TMZH standards. Size exclusion chromatography was performed on LACHROM ELITE, an analytical High Performance Liquid Chromatograph (HPLC) system with Diode Array Detector L 2455 (Hitachi, Pleasanton, Calif., USA), and Mw was measured using BioSep-SEC-S 3000 (300×7.80 mm) (Phenomenex, Torrance, Calif., USA) with 50 mM sodium phosphate buffer pH 6.8 and polystyrene sulfonates as molecular weight standards. Thiol residues attached to PMLA were assayed by the method of Ellman. Enzyme-linked immunosorbent assay (ELISA) was used to determine the functional activity of conjugated antibody using a Protein Detector ELISA Kit (KPL, Inc., Gaithersburg, Mass., USA). Human TfR ectodomain used as antigen was obtained from Protein Expression Center, California Institute of Technology, Pasadena, USA.
TMZ is a prodrug and undergoes spontaneous conversion to the active alkylating agent at neutral or alkaline pH. Half-lives were measured at physiological pH 7.4 in PBS and summarized in Table I. The decomposition of free and conjugated TMZH by hydrolytic ring opening (Chart 1) was a first order reaction for free TMZ or TMZH and conjugated TMZH (data not shown). […] Similar data have been reported for TMZ conjugated with small carbon chains (6). No detectable decomposition was observed during 24 h at pH 5.0 at RT.

MDA-MB-231 = assay: Cell viability (MTS); assay type: cell-based, human; settings: MDA-MB-231, 24 h exposure, viability on day 7, untreated = 100%
Method: (§1) Primary glioma cell lines U87MG and T98G, and invasive breast carcinoma cell lines MDA-MB-231 and MDA-MB-468 were obtained from American Type Culture Collection (ATCC, Manassas, Va., USA) USA. U87MG and T98G cells were cultured in MEM supplemented with 10% fetal bovine serum, 1% MEM NEAA, 1 mM sodium pyruvate and 2 mM L-glutamine. For MDA-MB-231 and MDA-MB-468, Leibovitz's L-15 medium with 10% fetal bovine serum was used. Cells were seeded at 10^3 per well (0.1 ml) in 96-well flat-bottomed plates and incubated overnight at 37° C. in humid atmosphere with 5% CO2 (MDA-MB-231 and MDA-MB-468 were incubated without CO2). After exposure to synthesized conjugates for 24 h, medium was replaced every 48 h. Cell viability was measured on day 5 for T98G and day 7 for the rest of the cell lines using the CELLTITER 96 Aqueous One Solution Cell Proliferation Assay kit (Cat. No. PR-G3580; Promega, Madison, Wis., USA). Yellow [3-(4,5-dimethylthiazol-2-yl)-5-(3-carboxymethoxyphenyl)-2-(4-sulfophenyl-)-2H-tetrazolium, inner salt] (MTS) is bioreduced by cells into formazan that is soluble in the tissue culture medium. The absorbance reading at 490 nm from the 96-well plates is directly proportional to the number of living cells (32). The viability of the untreated cells was taken as 100%. The results shown are the means±standard deviation of three independent measurements. Data were analyzed by statistical software GRAPHPAD PRISM 3.0.

MDA-MB-468 = assay: Cell viability (MTS); assay type: cell-based, human; settings: MDA-MB-468, 24 h exposure, viability on day 7, untreated = 100%
Method: as §1

T98G = assay: Cell viability (MTS); assay type: cell-based, human; settings: 24 h exposure, viability on day 5, untreated = 100%
Method: as §1

U87MG = assay: Cell viability (MTS); assay type: cell-based, human
Method: as §1

Row | Half-life of TMZ (physchem) [h] | half-life (physchem) [h] | Structure (SMILES) | effect on cell viability (MDA-MB-231) | effect on cell viability (MDA-MB-468) | effect on cell viability (T98G) | effect on cell viability (U87MG; 24 h exposure, viability on day 7, untreated = 100%) | order of increasing potency on cell viability (U87MG; FIG. 6a)
1 | 1.8 | 1.8 ± 0.1 | Cn1nnc2c(C(N)=O)ncn2c1=O [TMZ, temozolomide] | inactive; also recorded: did not change | inactive; also recorded: ineffective at all concentrations below 130 μM; also recorded: did not change | inactive; also recorded: did not change | stronger effect on U87MG cells than the nanoconjugates; also recorded: responded | P/PEG(2%)/LLL(40%)/TMZH(17%)/IgG(0.25%)<P/PEG(2%)/LLL(40%)/TMZH(17%)<P/PEG(2%)/LLL(40%)/TMZH(17%)/HuTfR mAb(0.25%)<TMZ
2 |  | 1.98 ± 0.1 | Cn1nnc2c(C(=O)NN)ncn2c1=O [TMZH, temozolomide hydrazide] |  |  |  |  | 
